According to PubChem BioAssay (NCI):
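Protocol summary: plate cells (96-well), add compound at 5 concentrations, incubate 48 h, interpolate endpoints linearly. TGI denotes the concentration required for complete inhibition of growth.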

What was measured:
Assay in all cases: growth of human tumour cells (NCI), 48 h
NCI-H522 lung = test system: NCI-H522 lung
CAKI-1 renal = test system: CAKI-1 renal
SNB-75 CNS = test system: SNB-75 CNS
UO-31 renal = test system: UO-31 renal
HL-60(TB) leukemia = test system: HL-60(TB) leukemia
MALME-3M melanoma = test system: MALME-3M melanoma
SNB-78 CNS = test system: SNB-78 CNS
RPMI-8226 leukemia = test system: RPMI-8226 leukemia
IGROV1 ovarian = test system: IGROV1 ovarian
LXFL 529 NSCLC = test system: LXFL 529 NSCLC
KM20L2 colon = test system: KM20L2 colon
SF-539 CNS = test system: SF-539 CNS
SF-268 CNS = test system: SF-268 CNS
HCT-116 colon = test system: HCT-116 colon
SW-620 colon = test system: SW-620 colon
XF 498 CNS = test system: XF 498 CNS
SK-MEL-5 melanoma = test system: SK-MEL-5 melanoma
HCC-2998 colon = test system: HCC-2998 colon
NCI-H460 lung = test system: NCI-H460 lung
SK-MEL-28 melanoma = test system: SK-MEL-28 melanoma
DMS 114 small cell lung = test system: DMS 114 small cell lung
OVCAR-4 ovarian = test system: OVCAR-4 ovarian
ACHN renal = test system: ACHN renal
A498 renal = test system: A498 renal
786-0 renal = test system: 786-0 renal
UACC-62 melanoma = test system: UACC-62 melanoma
UACC-257 melanoma = test system: UACC-257 melanoma
RXF 393 renal = test system: RXF 393 renal
U251 CNS = test system: U251 CNS
SF-295 CNS = test system: SF-295 CNS
DMS 273 small cell lung = test system: DMS 273 small cell lung
SNB-19 CNS = test system: SNB-19 CNS
K-562 leukemia = test system: K-562 leukemia
MOLT-4 leukemia = test system: MOLT-4 leukemia
NCI-H23 lung = test system: NCI-H23 lung
HCT-15 colon = test system: HCT-15 colon
DLD-1 colon = test system: DLD-1 colon
OVCAR-8 ovarian = test system: OVCAR-8 ovarian
SN12C renal = test system: SN12C renal
TK-10 renal = test system: TK-10 renal
SK-OV-3 ovarian = test system: SK-OV-3 ovarian
HT29 colon = test system: HT29 colon
SK-MEL-2 melanoma = test system: SK-MEL-2 melanoma
COLO 205 colon = test system: COLO 205 colon
CCRF-CEM leukemia = test system: CCRF-CEM leukemia
M14 melanoma = test system: M14 melanoma
A549 NSCLC = test system: A549 NSCLC
KM12 colon = test system: KM12 colon
EKVX NSCLC = test system: EKVX NSCLC
OVCAR-3 ovarian = test system: OVCAR-3 ovarian
HOP-62 NSCLC = test system: HOP-62 NSCLC
M19-MEL melanoma = test system: M19-MEL melanoma
NCI-H226 lung = test system: NCI-H226 lung
OVCAR-5 ovarian = test system: OVCAR-5 ovarian
HOP-92 NSCLC = test system: HOP-92 NSCLC
SR leukemia = test system: SR leukemia

Measured: TGI

Cc1nc(N)nn1C1OCC(O)C(O)C1O (stereo not given)
not listed: M19-MEL melanoma | NCI-H226 lung | OVCAR-5 ovarian | HOP-92 NSCLC | SR leukemia
> 100 µM: all other assays above

CO/C(=N\N=Cc1ccccc1)c1ccncc1
97.1 µM: NCI-H226 lung
not listed: 786-0 renal | RXF 393 renal
> 100 µM: all other assays above
